Experiments:
[1] = system: HuH7 cell line (FGF19 amplification); test: Cancer cell line cell viability assay (Cell Titer-Glo), 120 hr; assay type: cell-based; conditions: Homo sapiens, Huh-7
Summary of the method: (§1)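 RPMI1640/10% FBS for RT112/84 and MDA-MB-453; IMDM/20% FBS for KG-1; IMDM/10% FBS for HuH7. Cells plated overnight, dosed from 3 μM in 4-fold, 9-point series, incubated at 37° C, then lysed with Cell Titer-Glo 2.0; IC50 by sigmoidal fit.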

[2] = system: KG-1 cell line (FGFR 1-fusion); test: Cancer cell line cell viability assay (Cell Titer-Glo), 72 hr; assay type: cell-based; conditions: Homo sapiens, KG-1, KG-1 cell line (FGFR1-fusion)
Summary of the method: as §1

[3] = system: RT112/84 cell line (FGFR3-fusion); test: as above; assay type: cell-based; conditions: Homo sapiens, RT112/84, RT112/84 cell line (FGFR3-fusion)
Summary of the method: as §1

[4] = system: KATO-III cell line (FGFR2 amplification); test: as above; assay type: cell-based; conditions: Homo sapiens, KATO III
Summary of the method: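 5,000-20,000 cells/well o/n; cpd 9-pt 4x dil from 3 μM, n=3; 37° C/5% CO2; CTG 2.0 lumi; % DMSO ctrl; 4PL IC50.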

[5] = molecular target: T1, FGFR3 (Homo sapiens, UniProt P22607); test: Kinase binding assay (kinase-tagged T7 phage, affinity beads, qPCR), Kd; conditions: read-out: FGFR3 (Kd nM)
T1 construct: made in house; host or cells: E. coli (BL21-derived), T7 phage
Summary of the method: (§2)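 First, phage lysates carrying tagged kinase are made in E. coli at 32° C. Next, they are combined with blocked biotin-ligand streptavidin beads and compound at 0.9% final DMSO. Finally, eluted kinase is measured by qPCR and Kd is fitted with the Hill equation.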

[6] = molecular target: T2, FGFR2 (Homo sapiens, UniProt P21802); test: as above; conditions: read-out: FGFR2 (Kd nM)
T2 construct: made in house; host or cells: E. coli (BL21-derived), T7 phage
Summary of the method: as §2

[7] = molecular target: T3, FGFR1 (Homo sapiens, UniProt P11362); test: as above; conditions: read-out: FGFR1 (Kd nM)
T3 construct: made in house; host or cells: E. coli (BL21-derived), T7 phage
Summary of the method: as §2

[8] = molecular target: T4, FGFR3 (V555M) (Homo sapiens, UniProt P22607, V555M); test: as above; conditions: V555M mutant; read-out: FGFR3 (V555M) (Kd nM)
T4 construct: made in house; host or cells: E. coli (BL21-derived), T7 phage
Summary of the method: as §2

[9] = molecular target: T5, FGFR4 (Homo sapiens, UniProt P22455); test: as above; conditions: read-out: FGFR4 (Kd nM)
T5 construct: made in house; host or cells: E. coli (BL21-derived), T7 phage
Summary of the method: as §2

T1 sequence (P22607 23-806): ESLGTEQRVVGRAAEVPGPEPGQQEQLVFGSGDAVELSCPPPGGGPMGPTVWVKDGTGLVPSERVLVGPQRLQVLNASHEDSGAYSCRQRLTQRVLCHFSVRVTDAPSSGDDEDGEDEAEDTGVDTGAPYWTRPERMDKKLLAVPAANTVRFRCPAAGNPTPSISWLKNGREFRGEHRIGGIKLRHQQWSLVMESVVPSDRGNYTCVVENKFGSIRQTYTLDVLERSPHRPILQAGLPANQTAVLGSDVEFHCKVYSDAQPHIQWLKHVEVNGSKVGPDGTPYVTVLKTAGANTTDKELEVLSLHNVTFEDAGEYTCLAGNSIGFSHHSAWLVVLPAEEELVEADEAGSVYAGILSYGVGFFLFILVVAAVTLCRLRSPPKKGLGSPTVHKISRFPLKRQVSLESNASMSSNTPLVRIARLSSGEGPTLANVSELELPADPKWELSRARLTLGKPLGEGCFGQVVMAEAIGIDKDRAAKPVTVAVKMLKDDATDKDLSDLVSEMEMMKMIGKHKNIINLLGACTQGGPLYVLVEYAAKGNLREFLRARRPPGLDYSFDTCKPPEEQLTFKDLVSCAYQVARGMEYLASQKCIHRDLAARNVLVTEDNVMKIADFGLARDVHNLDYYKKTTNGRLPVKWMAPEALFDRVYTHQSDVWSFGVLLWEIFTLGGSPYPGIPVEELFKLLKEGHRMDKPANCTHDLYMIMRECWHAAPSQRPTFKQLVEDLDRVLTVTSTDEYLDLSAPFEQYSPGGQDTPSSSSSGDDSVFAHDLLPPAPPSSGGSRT
T2 sequence (P21802 22-821): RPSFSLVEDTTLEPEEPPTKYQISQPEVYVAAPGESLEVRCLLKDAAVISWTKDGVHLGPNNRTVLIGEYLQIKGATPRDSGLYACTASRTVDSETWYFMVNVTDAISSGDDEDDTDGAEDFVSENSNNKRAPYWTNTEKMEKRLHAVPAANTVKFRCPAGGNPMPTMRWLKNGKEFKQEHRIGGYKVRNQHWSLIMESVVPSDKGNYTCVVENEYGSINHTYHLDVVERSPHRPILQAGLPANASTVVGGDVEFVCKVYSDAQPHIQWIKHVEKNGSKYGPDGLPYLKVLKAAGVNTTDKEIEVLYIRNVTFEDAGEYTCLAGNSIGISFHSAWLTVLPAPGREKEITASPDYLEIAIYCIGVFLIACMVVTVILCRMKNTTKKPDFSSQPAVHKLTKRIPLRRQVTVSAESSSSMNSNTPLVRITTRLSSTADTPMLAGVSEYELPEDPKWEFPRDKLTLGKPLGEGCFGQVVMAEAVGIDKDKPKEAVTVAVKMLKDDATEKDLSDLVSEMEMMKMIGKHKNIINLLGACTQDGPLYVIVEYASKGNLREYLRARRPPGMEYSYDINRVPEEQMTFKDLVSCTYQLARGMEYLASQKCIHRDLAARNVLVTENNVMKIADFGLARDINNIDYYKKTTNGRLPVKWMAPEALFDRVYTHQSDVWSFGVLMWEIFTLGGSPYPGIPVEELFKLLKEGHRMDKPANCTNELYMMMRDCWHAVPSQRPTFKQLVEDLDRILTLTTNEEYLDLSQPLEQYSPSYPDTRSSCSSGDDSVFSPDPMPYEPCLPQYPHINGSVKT
T3 sequence (P11362 22-822): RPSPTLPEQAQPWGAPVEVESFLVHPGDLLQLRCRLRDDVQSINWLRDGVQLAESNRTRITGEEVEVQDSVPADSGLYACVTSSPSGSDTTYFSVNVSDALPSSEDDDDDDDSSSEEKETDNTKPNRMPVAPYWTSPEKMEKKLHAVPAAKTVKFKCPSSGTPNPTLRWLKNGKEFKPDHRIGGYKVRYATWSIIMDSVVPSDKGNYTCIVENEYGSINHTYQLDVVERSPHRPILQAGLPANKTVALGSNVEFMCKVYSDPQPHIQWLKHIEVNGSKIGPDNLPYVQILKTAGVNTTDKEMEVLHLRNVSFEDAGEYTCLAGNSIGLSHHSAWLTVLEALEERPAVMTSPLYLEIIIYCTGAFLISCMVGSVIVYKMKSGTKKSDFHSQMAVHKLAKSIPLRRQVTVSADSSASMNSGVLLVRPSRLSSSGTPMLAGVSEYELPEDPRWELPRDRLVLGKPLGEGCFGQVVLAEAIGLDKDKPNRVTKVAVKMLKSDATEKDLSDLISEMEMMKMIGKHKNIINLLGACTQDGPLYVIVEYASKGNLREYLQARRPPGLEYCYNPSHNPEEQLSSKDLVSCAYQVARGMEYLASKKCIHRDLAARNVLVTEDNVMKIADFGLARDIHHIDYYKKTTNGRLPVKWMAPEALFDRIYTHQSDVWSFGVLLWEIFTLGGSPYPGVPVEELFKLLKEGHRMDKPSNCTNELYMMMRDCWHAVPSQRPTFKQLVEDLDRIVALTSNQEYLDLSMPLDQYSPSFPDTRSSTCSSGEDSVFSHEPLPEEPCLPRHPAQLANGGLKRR
T4 sequence (P22607 23-806 V555M): as the sequence (P22607 23-806) above, with V533M counted along it
T5 sequence (P22455 22-802): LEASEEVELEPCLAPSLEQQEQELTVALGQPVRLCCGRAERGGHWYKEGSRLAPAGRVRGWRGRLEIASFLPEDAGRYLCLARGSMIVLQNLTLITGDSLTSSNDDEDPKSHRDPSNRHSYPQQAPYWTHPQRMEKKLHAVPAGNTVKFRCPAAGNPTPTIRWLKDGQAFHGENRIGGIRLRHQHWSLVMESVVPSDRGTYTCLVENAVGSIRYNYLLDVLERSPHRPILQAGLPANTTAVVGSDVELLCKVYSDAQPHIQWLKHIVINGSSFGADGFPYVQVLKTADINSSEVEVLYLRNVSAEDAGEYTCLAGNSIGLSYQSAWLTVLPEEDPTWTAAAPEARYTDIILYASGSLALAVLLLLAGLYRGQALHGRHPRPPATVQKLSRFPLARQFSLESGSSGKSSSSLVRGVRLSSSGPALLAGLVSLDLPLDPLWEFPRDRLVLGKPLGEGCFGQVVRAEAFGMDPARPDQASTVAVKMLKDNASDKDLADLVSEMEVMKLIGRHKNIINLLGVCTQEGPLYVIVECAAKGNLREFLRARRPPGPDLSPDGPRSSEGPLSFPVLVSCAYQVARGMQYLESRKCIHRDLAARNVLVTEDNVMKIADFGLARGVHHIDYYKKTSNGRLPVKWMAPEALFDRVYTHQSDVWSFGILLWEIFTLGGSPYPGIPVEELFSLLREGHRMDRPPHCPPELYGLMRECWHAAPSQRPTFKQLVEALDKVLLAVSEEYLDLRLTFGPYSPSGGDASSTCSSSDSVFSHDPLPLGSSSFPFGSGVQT

| Structure (SMILES) | IC50 [1] | IC50 [2] | IC50 [3] | IC50 [4] | Kd [5] | Kd [6] | Kd [7] | Kd [8] | Kd [9] |
| --- | --- | --- | --- | --- | --- | --- | --- | --- | --- |
| C[C@@H](Oc1ccc2[nH]nc(-c3cnc(N4CC(C)(N[C@H]5CCOC5)C4)c(C#N)c3)c2c1)c1c(Cl)cncc1Cl [Example 20, 5-(5-((R)-1-(3,5-dichloropyridin-4-yl)ethoxy)-1H-indazol-3-yl)-2-(3-methyl-3-(((S)-tetrahydrofuran-3-yl)amino)azetidin-1-yl)nicotinonitrile] | 0.1 to 50 nM | 200 to 1000 nM | 50 to 200 nM | 50 to 200 nM | 1 to 50 nM | 1 to 50 nM | 1 to 50 nM | 1 to 50 nM | 1 to 50 nM |
| C[C@@H](Oc1ccc2[nH]nc(-c3cnc(N4CC(C)(NCCC(F)F)C4)c(C#N)c3)c2c1)c1c(Cl)cncc1Cl [Example 21, (R)-5-(5-(1-(3,5-dichloropyridin-4-yl)ethoxy)-1H-indazol-3-yl)-2-(3-((3,3-difluoropropyl)amino)-3-methylazetidin-1-yl)nicotinonitrile] | 50 to 200 nM | 200 to 1000 nM | 50 to 200 nM | 200 to 1000 nM | 1 to 50 nM | 50 to 300 nM | 50 to 300 nM | 1 to 50 nM | 1 to 50 nM |
| C[C@@H](Oc1ccc2[nH]nc(-c3cnc(N4CC(C)(NCC(F)F)C4)c(C#N)c3)c2c1)c1c(Cl)cncc1Cl [Example 22, (R)-5-(5-(1-(3,5-dichloropyridin-4-yl)ethoxy)-1H-indazol-3-yl)-2-(3-((2,2-difluoroethyl)amino)-3-methylazetidin-1-yl)nicotinonitrile] | 0.1 to 50 nM | 200 to 1000 nM | 50 to 200 nM | 200 to 1000 nM | 1 to 50 nM | 50 to 300 nM | 50 to 300 nM | 1 to 50 nM | 1 to 50 nM |
| C[C@@H](Oc1ccc2[nH]nc(-c3cnc(N4CC(C)(CN(C)S(C)(=O)=O)C4)c(C#N)c3)c2c1)c1c(Cl)cncc1Cl [Example 23, (R)-N-((1-(3-cyano-5-(5-(1-(3,5-dichloropyridin-4-yl)ethoxy)-1H-indazol-3-yl)pyridin-2-yl)-3-methylazetidin-3-yl)methyl)-N-methylmethanesulfona-mide] | 0.1 to 50 nM | 200 to 1000 nM | 50 to 200 nM | 200 to 1000 nM | 1 to 50 nM | 1 to 50 nM | 1 to 50 nM | 1 to 50 nM | 1 to 50 nM |
| COc1cc2[nH]nc(-c3cnc(N4CC(C)(N[C@H]5CCOC5)C4)c(C#N)c3)c2cc1O[C@H](C)c1c(Cl)cncc1Cl [Example 24, 5-(5-((R)-1-(3,5-dichloropyridin-4-yl)ethoxy)-6-methoxy-1H-indazol-3-yl)-2-(3-methyl-3-(((S)-tetrahydrofuran-3-yl)amino)azetidin-1-yl)nicotinonitrile] | 0.1 to 50 nM | 50 to 200 nM | 0.1 to 50 nM | 50 to 200 nM | 1 to 50 nM | 1 to 50 nM | 1 to 50 nM | 1 to 50 nM | 1 to 50 nM |
| COc1cc2[nH]nc(-c3cnc(N4CC(C)(N[C@@H]5CCOC5)C4)c(C#N)c3)c2cc1O[C@H](C)c1c(Cl)cncc1Cl [Example 25, 5-(5-((R)-1-(3,5-dichloropyridin-4-yl)ethoxy)-6-methoxy-1H-indazol-3-yl)-2-(3-methyl-3-(((R)-tetrahydrofuran-3-yl)amino)azetidin-1-yl)nicotinonitrile] | 0.1 to 50 nM | 50 to 200 nM | 0.1 to 50 nM | 50 to 200 nM | 1 to 50 nM | 1 to 50 nM | 1 to 50 nM | 1 to 50 nM | 1 to 50 nM |
| COc1cc2[nH]nc(-c3cnc(N4CC(C)(N5CCC5)C4)c(C#N)c3)c2cc1O[C@H](C)c1c(Cl)cncc1Cl [Example 26, (R)-5-(5-(1-(3,5-dichloropyridin-4-yl)ethoxy)-6-methoxy-1H-indazol-3-yl)-2-(3′-methyl-[1,3′-biazetidin]-1′-yl)nicotinonitrile] | 0.1 to 50 nM | 0.1 to 50 nM | 0.1 to 50 nM | 50 to 200 nM | 1 to 50 nM | 1 to 50 nM | 1 to 50 nM | 1 to 50 nM | 1 to 50 nM |
| C[C@@H](Oc1ccc2[nH]nc(-c3cnc(N4CC(C)(NCC5CC5)C4)c(C#N)c3)c2c1)c1c(Cl)cncc1Cl [Example 27, 2-[3-(Cyclopropylmethylamino)-3-methyl-azetidin-1-yl]-5-[5-[(1R)-1-(3,5-dichloro-4-pyridyl)ethoxy]-1H-indazol-3-yl]pyridine-3-carbonitrile] | 50 to 200 nM | 200 to 1000 nM | 50 to 200 nM | 200 to 1000 nM | 1 to 50 nM | 50 to 300 nM | 1 to 50 nM | 1 to 50 nM | 1 to 50 nM |
| C[C@@H](Oc1ccc2[nH]nc(-c3cnc(N4CC(C)(N5CCC5)C4)c(C#N)c3)c2c1)c1c(Cl)cncc1Cl [Example 28, (R)-5-(5-(1-(3,5-dichloropyridin-4-yl)ethoxy)-1H-indazol-3-yl)-2-(3′-methyl-[1,3′-biazetidin]-1′-yl)nicotinonitrile] | 0.1 to 50 nM | 50 to 200 nM | 0.1 to 50 nM | 50 to 200 nM | 1 to 50 nM | 1 to 50 nM | 1 to 50 nM | 1 to 50 nM | 1 to 50 nM |
| C[C@@H](Oc1ccc2[nH]nc(-c3cnc(N4CC(C)(N[C@@H]5CCOC5)C4)c(C#N)c3)c2c1)c1c(Cl)cncc1Cl [Example 33, 5-(5-((R)-1-(3,5-dichloropyridin-4-yl)ethoxy)-1H-indazol-3-yl)-2-(3-methyl-3-(((R)-tetrahydrofuran-3-yl)amino)azetidin-1-yl)nicotinonitrile] | 0.1 to 50 nM | 200 to 1000 nM | 50 to 200 nM | 50 to 200 nM | 1 to 50 nM | 1 to 50 nM | 50 to 300 nM | 1 to 50 nM | 1 to 50 nM |
| C[C@@H](Oc1ccc2[nH]nc(-c3cnc(N4CC(C)(N5CCOCC5)C4)c(C#N)c3)c2c1)c1c(Cl)cncc1Cl [Example 34, 5-[5-[(1R)-1-(3,5-dichloro-4-pyridyl)ethoxy]-1H-indazol-3-yl]-2-(3-methyl-3-morpholino-azetidin-1-yl)pyridine-3-carbonitrile] | 0.1 to 50 nM | 200 to 1000 nM | 50 to 200 nM | 200 to 1000 nM | 1 to 50 nM | 50 to 300 nM | 50 to 300 nM | 1 to 50 nM | 1 to 50 nM |
| COCCNC1(C)CN(c2ncc(-c3n[nH]c4cc(OC)c(O[C@H](C)c5c(Cl)cncc5Cl)cc34)cc2C#N)C1 [Example 37, 5-[5-[(1R)-1-(3,5-dichloro-4-pyridyl)ethoxy]-6-methoxy-1H-indazol-3-yl]-2-[3-(2-methoxyethylamino)-3-methyl-azetidin-1-yl]pyridine-3-carbonitrile] | 0.1 to 50 nM | 50 to 200 nM | 0.1 to 50 nM | 50 to 200 nM | 1 to 50 nM | 1 to 50 nM | 1 to 50 nM | 1 to 50 nM | 1 to 50 nM |
| COc1cc2[nH]nc(-c3cnc(N4CC(C)(NCCC(F)F)C4)c(C#N)c3)c2cc1O[C@H](C)c1c(Cl)cncc1Cl [Example 41, 5-[5-[(1R)-1-(3,5-dichloro-4-pyridyl)ethoxy]-6-methoxy-1H-indazol-3-yl]-2-[3-(3,3-difluoropropylamino)-3-methyl-azetidin-1-yl]pyridine-3-carbonitrile] | 0.1 to 50 nM | 50 to 200 nM | 0.1 to 50 nM | 50 to 200 nM | 1 to 50 nM | 1 to 50 nM | 1 to 50 nM | 1 to 50 nM | 1 to 50 nM |

Source: patent US20250368666A1, “INDAZOLE COMPOUNDS” (TYRA BIOSCIENCES, INC., priority 2022, published 2025)
